{
  "source": "patent US20070292351A1",
  "about": "“Assay for efficacy of histone deacetylase inhibitors” (Methylgene, Inc., priority 2006, published 2007)",
  "key": {"[1]": {"tested_on": "peripheral white blood cells of patients", "assay": "Real time RT-PCR of gene transcription in patients' peripheral white cells in vivo", "set-up": "species or system human", "method": "FIG. 8. Induction of MT3 (A) and AREG (B) transcription in vivo in patients with solid tumor who received treatment with MGCD0103 for one week (three doses per week). At day 8 (72 h after the third dose), peripheral white blood cells were isolated and RNA extracted and analyzed by qRT-PCR\nFIG. 12. Induction of transcription of three tumor suppressor genes, BTG1, TNFSF9 and p21 in peripheral white cells from Patient A in vivo as determined by real time RT-PCR. Note that both BTG1 and TNFSF9 were identified in FIG. 11 using microarray expression analysis and their expression is confirmed in vivo by real time RT-PCR.\nFIG. 13. Induction of transcription of three tumor suppressor genes, BTG1, TNFSF9 and p21 in peripheral white cells from a MDS patient with clinical response (Patient E) and a MDS patient without response (Patient F) in vivo as determined by real time RT-PCR. Blood samples were drawn 48 hr post the 2nd dose in cycle 1.\n(§1) Whole blood from either consenting healthy volunteers or consenting patients was centrifuged at 2500 rpm for 10 minutes at ambient temperature in a Sorvall RT-7 centrifuge (Mandel Scientific Co., Guelph, Ontario). Plasma was removed and buffy coat was collected. Five volumes of Erythrocyte Lysis Buffer (EL) (Qiagen Canada Inc., Mississauga, Ontario) were added into buffy coat. Buffy coat was incubated on ice for 20 minutes before it was centrifuged at 400 g for 10 minutes at 4° C. Supernatant was removed and buffy coat was washed twice with EL buffer and re-centrifuged. Buffy coat was resuspended in RPMI media and cells were counted with trypan blue exclusion. To isolate PBMCs, buffy coat cells were centrifuged over Lymphoprep (Axis-Shield, 1114544), and any remaining erythrocytes in the sample were lysed by treatment with EL lysis buffer (Qiagen, 79217). The cell pellets are washed and then re-suspended in RPMI containing 10% FBS.\nQuantitative PCR with SYBR Green I detection with Mastercycler® ep realplex (Eppendorf) was performed using LightCycler® 480 SYBR Green I Master (Roche Diagnostics). SYBR Green I assays were performed with 600 nM primers. All other reaction conditions were as described by the manufacturer. Amplification conditions were 5 minutes of initial denaturation at 95° C., followed by 40 cycles of each 15 seconds at 95° C., 15 seconds at 63.4° C., 20 seconds at 68° C., a melting curve from 60° C. to 95° C. was recorded. Quantification was performed using Pfaffl method, a relative quantification method in real-time PCR (Nucleic Acids Research 2001 29:2002-2007). Primers were synthesized by Invitrogen (Invitrogen-Canada, Burlington, Ont.).\nHuman patients with either solid tumors or leukemia/MDS diseases were enrolled in phase I studies with consensus forms. […]"}, "[2]": {"tested_on": "peripheral white cells", "assay": "Cytokine/chemokine transcription in peripheral white cells of AML patients treated in vivo", "set-up": "species or system human", "settings": "for induction of transcription of IL-6, IL-8, IL-1b, MIP1b: in vivo", "method": "FIG. 15 Induction of transcription of IL-6, IL-8, IL-1b, MIP1b cytokine/chemokines by MGCD0103 in peripheral white cells ex vivo from a MDS patient and in vivo in an AML patient with response (Patient J).\nas §1\n(§2) Human patients with either solid tumors or leukemia/MDS diseases were enrolled in phase I studies with consensus forms. MGCD0103 were dosed into patients orally every other day (day 1, day 3, day 5 […]). Blood samples were withdrawled by using the Vacutainer sodium-heparin blood collection tubes (Becton Dickinson Laboratories, Franklin Lakes, N.J.) and shipped to the test site within 24 hours on ice-pack. Baseline samples were drawn immediately prior to the first drug dose, while the 24 hour samples were drawn at 24 hours post the first drug dose. The 48 hours samples were drawn at 48 hours post the first dose. For the 1 week samples, blood was drawn 72 hours after day 5 dose (3 accumulated doses during week 1)."}, "[3]": {"tested_on": "IL-6 and IL-8", "assay": "Cytokine antibody array of patient plasma", "format": "in vivo, human", "settings": "two leukemia patients treated orally; cytokine antibody array (FIG. 16)", "method": "FIG. 16 Induction of IL-6 and IL-8 expression in plasma from two leukemia patients treated with MGCD0103 orally in vivo, as determined by cytokine antibody array.\nas §2\n10 ml blood from patients were centrifuged at 2500 RPM for 10 min at 10° C. […] The levels of cytokines in the plasma were determined using the TranSignal Human Cytokine Antibody Array 1.0 (Cat#MA6120, Panomics Inc. Redwood City, Calif.) following the manufacturer's instructions. […] Blots were developed by autoradiography, scanned and quantitated using the Cyclone Software. Data was calculated, plotted using Excel and expressed as fold induction from Day 8 following treatment over baseline Day 0 samples."}},
  "data": [
    {"smiles": "Nc1ccccc1NC(=O)c1ccc(CNc2nccc(-c3cccnc3)n2)cc1", "note": "[MGCD0103]", "values": [
      {"measurement": "Induction of transcription of BTG1, TNFSF9 and p21", "setting": "[1]; MDS patient with clinical response (Patient E), 48 hr post 2nd dose in cycle 1 (FIG. 13)", "value": "Induction"},
      {"measurement": "induction of MT3 transcription in vivo", "setting": "[1]; patients with solid tumors, one week (three doses per week), day 8, qRT-PCR (FIG. 8A)", "value": "induction"},
      {"measurement": "induction of AREG transcription in vivo", "setting": "[1]; patients with solid tumors, one week (three doses per week), day 8, qRT-PCR (FIG. 8B)", "value": "induction"},
      {"measurement": "Induction of transcription of BTG1, TNFSF9 and p21", "setting": "[1]; peripheral white cells, AML Patient A, real time RT-PCR (FIG. 12)", "value": "Induction"},
      {"measurement": "expression level of other cytokine/chemokines", "setting": "[2]; ex vivo/in vivo in patients (data not shown)", "value": "either decreased or remained unmodified"},
      {"measurement": "induction of transcription of IL-6, IL-8, IL-1b, MIP1b", "setting": "[2]; AML patient with response (Patient A) (FIG. 15)", "value": "induction"},
      {"measurement": "induction of transcription of IL-6, IL-8, IL-1b, MIP1b", "setting": "[2]; two AML patients without clinical response (Patient B, C) (FIG. 15)", "value": "No such induction"},
      {"measurement": "induction of IL-6 and IL-8 expression in plasma", "setting": "[3]", "value": "induction"}
    ]}
  ]
}
